Experimental data published in the CheMixHub viscosity set.

Assay: xn = mol fraction of the nth substance listed

Cc1cccc([N+](=O)[O-])c1 + Cc1ccccc1
303.15 K, 101.33 kPa
Details | viscosity [mPa·s]
x1 = 0.201 | 0.63
x1 = 0.406 | 0.8
x1 = 0.603 | 1
x1 = 0.8 | 1.33

c1cscn1 + C1CCCCC1
298.15 K, 101 kPa
Details | viscosity [mPa·s]
x1 = 0.1468 | 0.8439
x1 = 0.2448 | 0.7891
x1 = 0.4908 | 0.8119
x1 = 0.7468 | 0.8753
x1 = 0.8357 | 0.904
x1 = 0.8841 | 0.928
x1 = 0.9385 | 0.958

COc1ccc(/C=C/C(=O)c2ccccc2)cc1 + CCO
viscosity [mPa·s], 101 kPa
Details | x1 = 0.000144 | x1 = 0.000288 | x1 = 0.0005755 | x1 = 0.00115 | x1 = 0.002298 | x1 = 0.004586
298.15 K | 1.12 | 1.173 | 1.263 | 1.34 | 1.364 | 1.439
303.15 K | 1.019 | 1.072 | 1.162 | 1.239 | 1.263 | 1.338
308.15 K | 0.9181 | 0.971 | 1.061 | 1.138 | 1.162 | 1.237

COC(=O)c1ccccc1O + CS(C)=O
303.15 K, 101 kPa
Details | viscosity [mPa·s]
x1 = 0.1215 | 1.932
x1 = 0.1918 | 2.13
x1 = 0.2697 | 2.186
x1 = 0.3567 | 2.283
x1 = 0.5628 | 2.356
x1 = 0.6882 | 2.38
x1 = 0.8323 | 2.403

CCOC(=O)[C@@H](O)[C@H](O)C(=O)OCC + CCCCO
viscosity [mPa·s], 101 kPa
Details | x1 = 0.0999 | x1 = 0.1999 | x1 = 0.3 | x1 = 0.4001 | x1 = 0.4999 | x1 = 0.5999 | x1 = 0.7001 | x1 = 0.8001 | x1 = 0.8999
293.15 K | 3.887 | 5.56 | 8.24 | 12.44 | 18.99 | 29.36 | 42.81 | 68.14 | 118.3
298.15 K | 3.353 | 4.704 | 6.807 | 9.946 | 14.79 | 22.09 | 31.37 | 47.6 | 78.41
303.15 K | 2.902 | 3.987 | 5.63 | 8.08 | 11.64 | 16.9 | 23.32 | 34.35 | 54.15
308.15 K | 2.527 | 3.408 | 4.729 | 6.627 | 9.328 | 13.22 | 17.74 | 25.53 | 38.75
313.15 K | 2.217 | 2.928 | 3.975 | 5.454 | 7.552 | 10.48 | 13.83 | 19.41 | 28.56
318.15 K | 1.953 | 2.557 | 3.433 | 4.631 | 6.283 | 8.549 | 11.11 | 15.2 | 21.73
323.15 K | 1.746 | 2.26 | 2.993 | 3.98 | 5.303 | 7.092 | 9.107 | 12.19 | 16.99

CCOC(=O)c1ccccc1 + c1ccccc1
298.15 K, 101 kPa
Details | viscosity [mPa·s]
x1 = 0.1302 | 0.7244
x1 = 0.3809 | 1.018
x1 = 0.522 | 1.2
x1 = 0.6112 | 1.327
x1 = 0.7595 | 1.557
x1 = 0.848 | 1.709

CCCCCCCCCl + CCCCCCCCCC
298 K, 101.3 kPa
Details | viscosity [mPa·s]
x2 = 0.1115 | 1.067
x2 = 0.2067 | 1.026
x2 = 0.3061 | 0.9966
x2 = 0.4041 | 0.969
x2 = 0.505 | 0.9433
x2 = 0.6124 | 0.9242
x2 = 0.707 | 0.8969
x2 = 0.797 | 0.8862
x2 = 0.8983 | 0.874

Cc1cccc([N+](=O)[O-])c1 + CCCCCC
303.15 K, 101.33 kPa
Details | viscosity [mPa·s]
x1 = 0.199 | 0.38
x1 = 0.416 | 0.58
x1 = 0.591 | 0.77
x1 = 0.802 | 1.11

CCCCCl + CC(C)O
298.15 K, 101 kPa
Details | viscosity [mPa·s]
x2 = 0.1 | 0.438
x2 = 0.1661 | 0.468
x2 = 0.225 | 0.47
x2 = 0.2891 | 0.493
x2 = 0.35 | 0.522
x2 = 0.4295 | 0.579
x2 = 0.5105 | 0.642
x2 = 0.5479 | 0.675
x2 = 0.6603 | 0.809
x2 = 0.7645 | 1.044
x2 = 0.8538 | 1.338
x2 = 0.92 | 1.615

C1=CCCCC1 + ClC(Cl)(Cl)Cl
303.15 K, 101 kPa
Details | viscosity [mPa·s]
x1 = 0.1014 | 0.875
x1 = 0.2018 | 0.839
x1 = 0.3213 | 0.8
x1 = 0.4018 | 0.775
x1 = 0.5046 | 0.74
x1 = 0.5562 | 0.722
x1 = 0.6526 | 0.688
x1 = 0.7514 | 0.653
x1 = 0.9049 | 0.603

OC(c1ccccc1)(c1ccccc1)c1ccccc1 + CCCCCOC(C)=O
Details | viscosity [mPa·s]
298.15 K, 101 kPa, x2 = 0.5 | 1.9
